This test has as its system L1210 leukemia ip in BDF1 mice, survival T/C. Kind of test: NCI In Vivo Anticancer Drug Screen. Data for tumor model L1210 Leukemia (intraperitoneal) in B6D2F1 (BDF1) mice. The following applies: higher = longer survival. A digest of the protocol: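 Each compound was tested against a transplantable tumor grown in mice. The endpoint was survival, with treated animals benchmarked against vehicle controls as a simple ratio.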

The mark [1] stands for this setting: endpoint: mean survival time, dose: 100.0 mg/kg/injection, schedule: Q01DX001 (ip), vehicle: carboxymethylcellulose (CMC).
Where [2] appears, read: endpoint: mean survival time, dose: 200.0 mg/kg/injection, schedule: Q01DX001 (ip), vehicle: carboxymethylcellulose (CMC).
Where [3] appears, read: endpoint: mean survival time, dose: 400.0 mg/kg/injection, schedule: Q01DX001 (ip), vehicle: carboxymethylcellulose (CMC).
[4] abbreviates: endpoint: mean survival time, dose: 100.0 mg/kg/injection, schedule: Q01DX009 (ip), vehicle: saline with Tween-80.
[5] abbreviates: endpoint: mean survival time, dose: 200.0 mg/kg/injection, schedule: Q01DX009 (ip), vehicle: saline with Tween-80.
Setting [6] is: endpoint: mean survival time, dose: 400.0 mg/kg/injection, schedule: Q01DX009 (ip), vehicle: saline with Tween-80.
The mark [7] stands for this setting: endpoint: mean survival time, dose: 50.0 mg/kg/injection, schedule: Q01DX009 (ip), vehicle: saline with Tween-80.
Where [8] appears, read: endpoint: mean survival time, dose: 100.0 mg/kg/injection, schedule: Q01DX009 (ip), vehicle: Klucel (hydroxypropylcellulose) (HPC).
Where [9] appears, read: endpoint: mean survival time, dose: 200.0 mg/kg/injection, schedule: Q01DX009 (ip), vehicle: Klucel (hydroxypropylcellulose) (HPC).
Where [10] appears, read: endpoint: mean survival time, dose: 100.0 mg/kg/injection, schedule: Q04DX003 (ip), vehicle: Klucel (hydroxypropylcellulose) (HPC).
Where [11] appears, read: endpoint: mean survival time, dose: 200.0 mg/kg/injection, schedule: Q04DX003 (ip), vehicle: Klucel (hydroxypropylcellulose) (HPC).
[12] abbreviates: endpoint: mean survival time, dose: 400.0 mg/kg/injection, schedule: Q04DX003 (ip), vehicle: Klucel (hydroxypropylcellulose) (HPC).

Values joined by “and” are separate entries in the source; they are usually repeats but may differ in a detail not shown here. Equal values may be shown once. Toxic doses and inconclusive results are not listed.

With `CC1CC(C)(C)C(C[NH-])C1[NH-].[Cl][Pt+2][Cl]` (stereo not drawn), the T/C is 189 % of control (endpoint: median survival time, dose: 7.5 mg/kg/injection, schedule: Q01DX009 (ip), vehicle: saline); 173 % of control (endpoint: median survival time, dose: 15.0 mg/kg/injection, schedule: Q01DX001 (ip), vehicle: saline); 205 % of control (endpoint: median survival time, dose: 15.0 mg/kg/injection, schedule: Q01DX009 (ip), vehicle: saline); 189 % of control (endpoint: median survival time, dose: 30.0 mg/kg/injection, schedule: Q01DX001 (ip), vehicle: saline); 105 % of control (endpoint: median survival time, dose: 30.0 mg/kg/injection, schedule: Q01DX009 (ip), vehicle: saline); 154 % of control (endpoint: median survival time, dose: 60.0 mg/kg/injection, schedule: Q01DX001 (ip), vehicle: saline). Also, the T/C was 87 % of control (endpoint: median survival time, dose: 60.0 mg/kg/injection, schedule: Q01DX009 (ip), vehicle: saline) and 209 % of control (endpoint: median survival time, dose: 120.0 mg/kg/injection, schedule: Q01DX001 (ip), vehicle: saline).

With `Cc1cc(=O)[nH]c2ccc(Cc3ccc(N)cc3)cc12`, the T/C by setting is: under setting [1], 95 % of control; under setting [2], 96 % of control; under setting [3], 98 % of control.

On to `O=C(Nc1cc([N+](=O)[O-])ccc1Cl)SCc1ccccc1`, for which the T/C by setting is: under setting [4], 102 % of control; under setting [5], 98 % of control; under setting [6], 102 % of control.

On to `O=C(NNCN1C(=O)c2ccccc2C1=O)c1ccccc1`, for which the T/C under setting [5] is 90 % of control.

For `c1ccc2c(c1)-c1cccc3c1c-2cc1ccccc13`, the T/C by setting is: (endpoint: mean survival time, dose: 100.0 mg/kg/injection, schedule: Q01DX001 (ip), vehicle: other) 104 % of control; (endpoint: mean survival time, dose: 200.0 mg/kg/injection, schedule: Q01DX001 (ip), vehicle: other) 101 % of control; (endpoint: mean survival time, dose: 400.0 mg/kg/injection, schedule: Q01DX001 (ip), vehicle: other) 95 % of control.

For the molecule `O=[N+]([O-])c1ccc2c(ccn2C2OCC(O)C(O)C2O)c1` (stereo not drawn), the T/C was 94 % of control and 96 % of control (endpoint: mean survival time, dose: 25.0 mg/kg/injection, schedule: Q01DX005 (ip), vehicle: saline); 96 % of control and 92 % of control (endpoint: mean survival time, dose: 50.0 mg/kg/injection, schedule: Q01DX005 (ip), vehicle: saline); 98 % of control under setting [7]; 93 % of control and 91 % of control (endpoint: mean survival time, dose: 100.0 mg/kg/injection, schedule: Q01DX005 (ip), vehicle: saline); 98 % of control under setting [4]; 102 % of control under setting [5]. For the same molecule, the T/C under setting [6] is 111 % of control.

On to `O=c1[nH]c2nc3ccccc3nc2c(=O)n1O`, for which the T/C by setting is: under setting [8], 100 % of control; under setting [9], 105 % of control.

Consider `CCCC(O)(CCC)C(=O)O`, for which the T/C is 94 % of control (endpoint: mean survival time, dose: 100.0 mg/kg/injection, schedule: Q01DX001 (ip), vehicle: saline) and 94 % of control (endpoint: mean survival time, dose: 200.0 mg/kg/injection, schedule: Q01DX001 (ip), vehicle: saline).

As for `CCN(CC)C(=O)Oc1cccc(NC(=O)OC)c1`, the T/C (endpoint: mean survival time, dose: 100.0 mg/kg/injection, schedule: Q01DX001 (ip), vehicle: saline with Tween-80) was 94 % of control; the T/C (endpoint: mean survival time, dose: 200.0 mg/kg/injection, schedule: Q01DX001 (ip), vehicle: saline with Tween-80) is 94 % of control; the T/C (endpoint: mean survival time, dose: 400.0 mg/kg/injection, schedule: Q01DX001 (ip), vehicle: saline with Tween-80) was 100 % of control.

For the molecule `O=[N+]([O-])c1cc(Cl)cc2c1nc(NCCCO)c1ccccc12`, the T/C is, setting by setting: under setting [10], 105 % of control; under setting [11], 108 % of control; under setting [12], 102 % of control.

In the case of `CN(C)P(=O)(Oc1c(Cl)c(Cl)c(Cl)c(Cl)c1Cl)Oc1c(Cl)c(Cl)c(Cl)c(Cl)c1Cl`, the T/C is 107 % of control (endpoint: mean survival time, dose: 100.0 mg/kg/injection, schedule: Q04DX002 (ip), vehicle: saline with Tween-80); 110 % of control (endpoint: mean survival time, dose: 200.0 mg/kg/injection, schedule: Q04DX002 (ip), vehicle: saline with Tween-80); 93 % of control (endpoint: mean survival time, dose: 400.0 mg/kg/injection, schedule: Q04DX002 (ip), vehicle: saline with Tween-80).

`O=C1OCCN1C(=O)c1ccc(C(=O)N2CCOC2=O)cc1`: the T/C (endpoint: mean survival time, dose: 100.0 mg/kg/injection, schedule: Q01DX001 (ip), vehicle: Klucel (hydroxypropylcellulose) (HPC)) was 94 % of control; the T/C (endpoint: mean survival time, dose: 100.0 mg/kg/injection, schedule: Q01DX007 (ip), vehicle: Klucel (hydroxypropylcellulose) (HPC)) was 89 % of control; the T/C under setting [10] is 97 % of control; the T/C (endpoint: mean survival time, dose: 200.0 mg/kg/injection, schedule: Q01DX001 (ip), vehicle: Klucel (hydroxypropylcellulose) (HPC)) is 87 % of control; the T/C (endpoint: mean survival time, dose: 200.0 mg/kg/injection, schedule: Q01DX007 (ip), vehicle: Klucel (hydroxypropylcellulose) (HPC)) was 92 % of control; the T/C under setting [11] was 101 % of control. Besides, the T/C is, setting by setting: (endpoint: mean survival time, dose: 400.0 mg/kg/injection, schedule: Q01DX001 (ip), vehicle: Klucel (hydroxypropylcellulose) (HPC)) 92 % of control; (endpoint: mean survival time, dose: 400.0 mg/kg/injection, schedule: Q01DX007 (ip), vehicle: Klucel (hydroxypropylcellulose) (HPC)) 90 % of control; under setting [12], 95 % of control.

For the molecule `O=NN(CC(=O)O)Cc1ccc(Cl)cc1`, the T/C runs as follows: (endpoint: mean survival time, dose: 100.0 mg/kg/injection, schedule: Q01DX Z (ip), vehicle: saline) 102 % of control; (endpoint: mean survival time, dose: 200.0 mg/kg/injection, schedule: Q01DX Z (ip), vehicle: saline) 102 % of control.

With `O=C(O)COc1ccc(Cl)c2ccccc12`, the T/C was 96 % of control (endpoint: mean survival time, dose: 100.0 mg/kg/injection, schedule: Q04DX002 (ip), vehicle: Klucel (hydroxypropylcellulose) (HPC)) and 100 % of control (endpoint: mean survival time, dose: 200.0 mg/kg/injection, schedule: Q04DX002 (ip), vehicle: Klucel (hydroxypropylcellulose) (HPC)).

Consider `Cn1c(CC(O)(C(F)(F)F)C(F)(F)F)ccc1CC(O)(C(F)(F)F)C(F)(F)F`, for which the T/C is 107 % of control (endpoint: mean survival time, dose: 100.0 mg/kg/injection, schedule: Q01DX001 (ip), vehicle: gum acacia); 103 % of control (endpoint: mean survival time, dose: 200.0 mg/kg/injection, schedule: Q01DX001 (ip), vehicle: gum acacia); 98 % of control (endpoint: mean survival time, dose: 400.0 mg/kg/injection, schedule: Q01DX001 (ip), vehicle: gum acacia).

With `c1ccc(C2SCCSCCS2)cc1`, the T/C runs as follows: (endpoint: mean survival time, dose: 25.0 mg/kg/injection, schedule: Q01DX009 (ip), vehicle: saline with Tween-80) 92 % of control; under setting [7], 86 % of control; under setting [4], 86 % of control; under setting [10], 102 % of control; under setting [11], 100 % of control; under setting [12], 92 % of control.

As for `O=[N+]([O-])c1ccc(CSCc2ccc(Cl)cc2)cc1`, the T/C reads like this: under setting [1], 97 % of control; under setting [2], 97 % of control; under setting [3], 94 % of control.

For the molecule `CCc1cc2c(cc1/C(C)=N/N=C(\C)c1cc3c(cc1CC)C(C)(C)CCC3(C)C)C(C)(C)CCC2(C)C`, the T/C under setting [8] is 97 % of control; the T/C under setting [9] is 89 % of control; the T/C (endpoint: mean survival time, dose: 400.0 mg/kg/injection, schedule: Q01DX009 (ip), vehicle: Klucel (hydroxypropylcellulose) (HPC)) was 93 % of control.

As for `c1cncc(C2OCCO2)c1`, the T/C reads like this: (endpoint: mean survival time, dose: 100.0 mg/kg/injection, schedule: Q04DX003 (ip), vehicle: saline) 98 % of control; (endpoint: mean survival time, dose: 200.0 mg/kg/injection, schedule: Q04DX003 (ip), vehicle: saline) 92 % of control; (endpoint: mean survival time, dose: 400.0 mg/kg/injection, schedule: Q04DX003 (ip), vehicle: saline) 105 % of control.

As to `O=C1CCc2c1cc(O)c1ccc(S(=O)(=O)O)cc21`, the T/C (endpoint: mean survival time, dose: 5.0 mg/kg/injection, schedule: Q01DX001 (ip), vehicle: saline) was 104 % of control; the T/C (endpoint: mean survival time, dose: 10.0 mg/kg/injection, schedule: Q01DX001 (ip), vehicle: saline) is 106 % of control; the T/C (endpoint: mean survival time, dose: 20.0 mg/kg/injection, schedule: Q01DX001 (ip), vehicle: saline) is 104 % of control; the T/C (endpoint: mean survival time, dose: 40.0 mg/kg/injection, schedule: Q01DX001 (ip), vehicle: saline) is 102 % of control.

Values taken from PubChem BioAssay AID248 (DTP/NCI, 2004).
